Reference: patent US20120046273A1, “COMPOUNDS AND COMPOSITIONS FOR COGNITION-ENHANCEMENT, METHODS OF MAKING, AND METHODS OF TREATING” (MITHRIDION, INC., priority 2009, published 2012)

molecular target: T1, human muscarinic M1 receptors (Homo sapiens, UniProt P11229); test: Inositol phosphate production in huM1/A9L cells (IPOne TR-FRET); format: cell-based; settings: percentage of maximal stimulation by carbachol
T1 construct: expressed in transfected cells; host or cells: A9L cells (gift from Professor W Messer)
T1 sequence (P11229 1-460): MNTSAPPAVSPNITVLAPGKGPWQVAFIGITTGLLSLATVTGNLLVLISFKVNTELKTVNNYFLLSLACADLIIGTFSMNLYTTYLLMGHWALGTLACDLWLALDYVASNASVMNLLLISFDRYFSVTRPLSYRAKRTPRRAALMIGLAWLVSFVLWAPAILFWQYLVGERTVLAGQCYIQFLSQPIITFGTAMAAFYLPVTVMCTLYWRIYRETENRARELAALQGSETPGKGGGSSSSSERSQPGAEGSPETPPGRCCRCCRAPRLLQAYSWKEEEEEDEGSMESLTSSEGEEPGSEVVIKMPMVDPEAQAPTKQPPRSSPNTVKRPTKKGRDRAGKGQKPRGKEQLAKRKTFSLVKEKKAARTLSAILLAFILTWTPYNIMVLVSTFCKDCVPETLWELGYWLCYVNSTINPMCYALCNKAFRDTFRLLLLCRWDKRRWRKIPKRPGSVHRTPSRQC
Experimental: (§1) Muscarinic M1 and M3 agonist activity was evaluated by measuring the stimulation of inositol phosphate (IP) production in the presence of lithium chloride from A9L cells transfected with expression plasmids containing human muscarinic M1 and M3 receptors, respectively. The cell lines were a gift from Professor W Messer, and the methods were as described in Tejada F R et al. J. Med. Chem. 2006; 49: 7518-31 except that the assay was scaled down to run in 384 well plates, and IP was measured in the cell lysates using the non-isotopic IPOne TR-FRET assay (CIS-BIO, Inc).
(§2) Cells were grown to 90% confluence in 384 well hi-base plates (Greiner Bio-One), compounds were added at suitable concentrations in growth medium containing 10 mM LiCL, buffered with an extra 10 mM HEPES (pH7.4), and incubated for 60 minutes at 37° C. Cells were lysed and assayed for IP following the manufacturer's instructions.
(§3) The value for a full agonist is 100%, while partial agonists give values below 100%.

Row | Compound | huM1/A9L Smax
1 | Cc1noc([C@H]2CC[C@H](C)NC2)n1 [Compound 103] | 15%
2 | Cc1noc([C@H]2CNC[C@@H](C)C2)n1 [Compound 104] | 9%
3 | Cc1noc([C@@H]2CNC[C@@H](C)C2)n1 [Compound 105] | 18%
4 | Cc1noc([C@@H]2CCCN[C@@H]2C)n1 [Compound 108] | 41%
5 | Cc1noc([C@H]2CCCN[C@@H]2C)n1 [Compound 109] | 3%
6 | Nc1noc(C2CCCNC2)n1 (stereo not drawn) [Compound 111, 3-Amino-5-(piperidin-3-yl)-1,2,4-oxadiazole] | 97%
7 | CCc1noc(C2CCCNC2)n1 (stereo not drawn) [Compound 128, 3-ethyl-5-(piperidin-3-yl)-1,2,4-oxadiazole, reference compound] | 15%

same assay, conditions: potency relative to carbachol

Row | Compound | huM1/A9L ED50 relative to CCh
8 | Cc1noc([C@H]2CC[C@H](C)NC2)n1 [Compound 103] | inactive
9 | Cc1noc([C@H]2CNC[C@@H](C)C2)n1 [Compound 104] | inactive
10 | Cc1noc([C@@H]2CNC[C@@H](C)C2)n1 [Compound 105] | inactive
11 | Cc1noc([C@@H]2CCCN[C@@H]2C)n1 [Compound 108] | −− (potency <0.1x CCh)
12 | Cc1noc([C@H]2CCCN[C@@H]2C)n1 [Compound 109] | inactive
13 | Nc1noc(C2CCCNC2)n1 (stereo not drawn) [Compound 111, 3-Amino-5-(piperidin-3-yl)-1,2,4-oxadiazole] | + (potency 2-10x CCh)
14 | Cc1noc(C2CCNC2)n1 (stereo not drawn) [Compound 115, 3-methyl-5-(pyrrolidin-3-yl)-1,2,4-oxadiazole] | + (potency 2-10x CCh)
15 | CCc1noc(C2CCCNC2)n1 (stereo not drawn) [Compound 128, 3-ethyl-5-(piperidin-3-yl)-1,2,4-oxadiazole, reference compound] | inactive

molecular target: T2, human muscarinic M3 receptors (Homo sapiens, UniProt P20309); test: Inositol phosphate production in huM3/A9L cells (IPOne TR-FRET); format: cell-based; settings: percentage of maximal stimulation by carbachol
T2 construct: expressed in transfected cells; host or cells: A9L cells (gift from Professor W Messer)
T2 sequence (P20309 whole entry): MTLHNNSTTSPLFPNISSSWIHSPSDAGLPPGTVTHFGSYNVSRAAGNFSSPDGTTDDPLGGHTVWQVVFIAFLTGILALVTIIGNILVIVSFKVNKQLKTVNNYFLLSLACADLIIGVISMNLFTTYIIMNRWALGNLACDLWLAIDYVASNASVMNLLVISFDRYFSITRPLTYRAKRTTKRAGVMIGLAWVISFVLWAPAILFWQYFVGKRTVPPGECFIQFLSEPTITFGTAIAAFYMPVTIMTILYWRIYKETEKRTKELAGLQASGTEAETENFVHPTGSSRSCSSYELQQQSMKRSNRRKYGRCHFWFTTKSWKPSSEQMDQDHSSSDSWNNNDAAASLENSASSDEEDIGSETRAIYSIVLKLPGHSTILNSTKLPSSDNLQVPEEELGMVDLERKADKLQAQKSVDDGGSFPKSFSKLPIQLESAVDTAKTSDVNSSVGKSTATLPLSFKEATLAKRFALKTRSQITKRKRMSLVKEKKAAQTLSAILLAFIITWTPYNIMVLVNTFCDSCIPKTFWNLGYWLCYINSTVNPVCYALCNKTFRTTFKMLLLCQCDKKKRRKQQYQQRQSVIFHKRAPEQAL
Experimental: as §1, §2, §3

Row | Compound | huM3/A9L Smax
16 | Cc1noc([C@H]2CC[C@H](C)NC2)n1 [Compound 103] | 34%
17 | Cc1noc([C@H]2CNC[C@@H](C)C2)n1 [Compound 104] | 20%
18 | Cc1noc([C@@H]2CNC[C@@H](C)C2)n1 [Compound 105] | 14%
19 | Cc1noc([C@@H]2CCCN[C@@H]2C)n1 [Compound 108] | 32%
20 | Cc1noc([C@H]2CCCN[C@@H]2C)n1 [Compound 109] | 20%
21 | Nc1noc(C2CCCNC2)n1 (stereo not drawn) [Compound 111, 3-Amino-5-(piperidin-3-yl)-1,2,4-oxadiazole] | 20%
22 | CCc1noc(C2CCCNC2)n1 (stereo not drawn) [Compound 128, 3-ethyl-5-(piperidin-3-yl)-1,2,4-oxadiazole, reference compound] | <14%

same assay, conditions: potency relative to carbachol

Row | Compound | huM3/A9L ED50 relative to CCh
23 | Cc1noc([C@H]2CC[C@H](C)NC2)n1 [Compound 103] | inactive
24 | Cc1noc([C@H]2CNC[C@@H](C)C2)n1 [Compound 104] | inactive
25 | Cc1noc([C@@H]2CNC[C@@H](C)C2)n1 [Compound 105] | inactive
26 | Cc1noc([C@@H]2CCCN[C@@H]2C)n1 [Compound 108] | inactive
27 | Cc1noc([C@H]2CCCN[C@@H]2C)n1 [Compound 109] | inactive
28 | Nc1noc(C2CCCNC2)n1 (stereo not drawn) [Compound 111, 3-Amino-5-(piperidin-3-yl)-1,2,4-oxadiazole] | +/− (potency 0.5-2x CCh)
29 | Cc1noc(C2CCNC2)n1 (stereo not drawn) [Compound 115, 3-methyl-5-(pyrrolidin-3-yl)-1,2,4-oxadiazole] | − (potency <0.5-0.1x CCh)
30 | CCc1noc(C2CCCNC2)n1 (stereo not drawn) [Compound 128, 3-ethyl-5-(piperidin-3-yl)-1,2,4-oxadiazole, reference compound] | inactive
